Source: PubChem BioAssay (NCI)
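Step 1: Grow cells in 96-well plates. Step 2: Expose to compound for 48 hours at 5 concentrations. Step 3: Interpolate endpoints linearly; if unreached, use highest concentration. TGI marks complete inhibition of growth.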

Assays:
Assay in all cases: NCI-60 cell line screen, 48 h
[1] = tested on: MCF7 breast
[2] = tested on: SF-295 CNS
[3] = tested on: M14 melanoma
[4] = tested on: T-47D breast
[5] = tested on: MDA-MB-231 breast
[6] = tested on: SK-MEL-28 melanoma
[7] = tested on: KM12 colon
[8] = tested on: A549 NSCLC
[9] = tested on: CAKI-1 renal
[10] = tested on: EKVX NSCLC
[11] = tested on: COLO 205 colon
[12] = tested on: HS 578T breast
[13] = tested on: SN12C renal
[14] = tested on: HCC-2998 colon
[15] = tested on: NCI/ADR-RES ovarian
[16] = tested on: NCI-H460 lung
[17] = tested on: OVCAR-4 ovarian
[18] = tested on: OVCAR-8 ovarian
[19] = tested on: MOLT-4 leukemia
[20] = tested on: SNB-19 CNS
[21] = tested on: 786-0 renal
[22] = tested on: IGROV1 ovarian
[23] = tested on: A498 renal
[24] = tested on: HOP-62 NSCLC
[25] = tested on: UO-31 renal
[26] = tested on: RPMI-8226 leukemia
[27] = tested on: MDA-MB-435
[28] = tested on: UACC-257 melanoma
[29] = tested on: SK-MEL-5 melanoma
[30] = tested on: HL-60(TB) leukemia
[31] = tested on: ACHN renal
[32] = tested on: SF-539 CNS
[33] = tested on: NCI-H522 lung
[34] = tested on: SR leukemia
[35] = tested on: HCT-15 colon
[36] = tested on: BT-549 breast
[37] = tested on: PC-3 prostate
[38] = tested on: SW-620 colon
[39] = tested on: MDA-N
[40] = tested on: TK-10 renal
[41] = tested on: HOP-92 NSCLC
[42] = tested on: CCRF-CEM leukemia
[43] = tested on: MALME-3M melanoma
[44] = tested on: NCI-H226 lung
[45] = tested on: SK-OV-3 ovarian
[46] = tested on: NCI-H23 lung
[47] = tested on: OVCAR-5 ovarian
[48] = tested on: HT29 colon
[49] = tested on: U251 CNS
[50] = tested on: SK-MEL-2 melanoma
[51] = tested on: UACC-62 melanoma
[52] = tested on: SF-268 CNS
[53] = tested on: OVCAR-3 ovarian
[54] = tested on: LOX IMVI melanoma
[55] = tested on: DU-145 prostate
[56] = tested on: RXF 393 renal
[57] = tested on: K-562 leukemia
[58] = tested on: HCT-116 colon
[59] = tested on: SNB-75 CNS

## CC(=O)Nc1ccc2[nH]c(-c3cccc(F)c3)cc(=O)c2c1
[1]
  TGI: > 100 µM
[2]
  TGI: > 77.2 µM
[3]
  TGI: > 100 µM
[4]
  TGI: > 100 µM
[5]
  TGI: > 59.6 µM
[6]
  TGI: > 100 µM
[7]
  TGI: > 100 µM
[8]
  TGI: > 100 µM
[9]
  TGI: > 100 µM
[10]
  TGI: > 100 µM
[11]
  TGI: > 65.5 µM
[12]
  TGI: > 28.2 µM
[13]
  TGI: > 100 µM
[14]
  TGI: 23 µM
[15]
  TGI: 21.2 µM
[16]
  TGI: > 100 µM
[17]
  TGI: > 29.5 µM
[18]
  TGI: > 31.6 µM
[19]
  TGI: > 100 µM
[20]
  TGI: > 100 µM
[21]
  TGI: > 100 µM
[22]
  TGI: > 100 µM
[23]
  TGI: > 59.8 µM
[24]
  TGI: > 48.4 µM
[25]
  TGI: > 82.2 µM
[26]
  TGI: > 59.8 µM
[27]
  TGI: 3.85 µM
[28]
  TGI: > 100 µM
[29]
  TGI: 27.8 µM
[30]
  TGI: 80.7 µM
[31]
  TGI: > 100 µM
[32]
  TGI: 6.92 µM
[33]
  TGI: 20.2 µM
[34]
  TGI: > 100 µM
[35]
  TGI: > 100 µM
[36]
  TGI: > 100 µM
[37]
  TGI: > 100 µM
[38]
  TGI: > 100 µM
[39]
  TGI: > 25.4 µM
[40]
  TGI: > 100 µM
[41]
  TGI: > 55.1 µM
[42]
  TGI: > 100 µM
[43]
  TGI: > 100 µM
[44]
  TGI: > 75.9 µM
[45]
  TGI: > 100 µM
[46]
  TGI: > 56.8 µM
[47]
  TGI: > 100 µM
[48]
  TGI: > 100 µM
[49]
  TGI: 16.3 µM
[50]
  TGI: […]
[51]
  TGI: > 31 µM

## CC12Cc3cc4c(cc3C1(c1ccc([N+](=O)[O-])cc1)OCCO2)OCO4 (centres undefined)
[52]
  TGI: 71.6 µM
[1]
  TGI: > 100 µM
[2]
  TGI: 57.7 µM
[3]
  TGI: > 100 µM
[4]
  TGI: > 100 µM
[5]
  TGI: 42.3 µM
[6]
  TGI: > 100 µM
[7]
  TGI: > 100 µM
[8]
  TGI: > 100 µM
[53]
  TGI: > 100 µM
[9]
  TGI: > 100 µM
[54]
  TGI: > 100 µM
[10]
  TGI: > 100 µM
[11]
  TGI: > 100 µM
[12]
  TGI: 86.4 µM
[13]
  TGI: > 100 µM
[14]
  TGI: > 100 µM
[15]
  TGI: > 100 µM
[16]
  TGI: > 100 µM
[17]
  TGI: > 100 µM
[18]
  TGI: 64 µM
[19]
  TGI: > 100 µM
[20]
  TGI: 73.2 µM
[21]
  TGI: > 100 µM
[22]
  TGI: 85.1 µM
[23]
  TGI: > 100 µM
[24]
  TGI: 46.5 µM
[25]
  TGI: > 100 µM
[26]
  TGI: > 100 µM
[27]
  TGI: > 100 µM
[28]
  TGI: > 100 µM
[29]
  TGI: > 100 µM
[30]
  TGI: > 100 µM
[31]
  TGI: > 100 µM
[32]
  TGI: > 100 µM
[33]
  TGI: > 100 µM
[34]
  TGI: > 100 µM
[35]
  TGI: > 100 µM
[36]
  TGI: 91.9 µM
[55]
  TGI: > 100 µM
[37]
  TGI: > 100 µM
[38]
  TGI: > 100 µM
[56]
  TGI: 51.6 µM
[39]
  TGI: > 100 µM
[40]
  TGI: > 100 µM
[42]
  TGI: > 100 µM
[43]
  TGI: > 100 µM
[44]
  TGI: 86.7 µM
[45]
  TGI: 47.6 µM
[46]
  TGI: > 100 µM
[47]
  TGI: > 100 µM
[48]
  TGI: > 100 µM
[49]
  TGI: > 100 µM
[50]
  TGI: > 100 µM
[51]
  TGI: > 100 µM
[57]
  TGI: > 100 µM
[58]
  TGI: > 100 µM

## CCC(=O)O[C@H]1CC[C@H]2[C@@H]3CCC4=C/C(=N/NC(=O)c5cccc6c(=O)c7ccccc7[nH]c56)CC[C@]4(C)[C@H]3CC[C@]12C
[52]
  TGI: > 25 µM
[1]
  TGI: > 25 µM
[2]
  TGI: > 25 µM
[3]
  TGI: > 25 µM
[4]
  TGI: > 25 µM
[5]
  TGI: > 25 µM
[6]
  TGI: > 25 µM
[7]
  TGI: > 25 µM
[8]
  TGI: > 25 µM
[53]
  TGI: > 25 µM
[54]
  TGI: > 25 µM
[10]
  TGI: > 25 µM
[11]
  TGI: > 25 µM
[12]
  TGI: > 25 µM
[13]
  TGI: > 25 µM
[14]
  TGI: > 25 µM
[15]
  TGI: > 25 µM
[16]
  TGI: > 25 µM
[17]
  TGI: > 25 µM
[18]
  TGI: > 25 µM
[19]
  TGI: > 25 µM
[20]
  TGI: > 25 µM
[21]
  TGI: 10.3 µM
[22]
  TGI: > 25 µM
[23]
  TGI: > 25 µM
[24]
  TGI: > 25 µM
[25]
  TGI: > 25 µM
[26]
  TGI: > 25 µM
[27]
  TGI: > 25 µM
[28]
  TGI: > 25 µM
[29]
  TGI: > 25 µM
[31]
  TGI: > 25 µM
[32]
  TGI: > 25 µM
[33]
  TGI: > 25 µM
[34]
  TGI: > 25 µM
[35]
  TGI: > 25 µM
[36]
  TGI: > 25 µM
[37]
  TGI: > 25 µM
[38]
  TGI: > 25 µM
[56]
  TGI: > 25 µM
[39]
  TGI: > 25 µM
[40]
  TGI: > 25 µM
[41]
  TGI: > 25 µM
[42]
  TGI: > 25 µM
[44]
  TGI: > 25 µM
[45]
  TGI: > 25 µM
[46]
  TGI: > 25 µM
[47]
  TGI: > 25 µM
[48]
  TGI: > 25 µM
[49]
  TGI: > 25 µM
[50]
  TGI: > 25 µM
[51]
  TGI: > 25 µM
[57]
  TGI: > 25 µM
[59]
  TGI: > 25 µM

## O=[N+]([O-])c1cn[n+]([O-])c2ccccc12
[52]
  TGI: 17.9 µM
[1]
  TGI: 50.1 µM
[2]
  TGI: 17.6 µM
[3]
  TGI: 13 µM
[4]
  TGI: 18 µM
[5]
  TGI: 27.3 µM
[6]
  TGI: 26.1 µM
[7]
  TGI: 18.4 µM
[8]
  TGI: 30.1 µM
[53]
  TGI: 7.28 µM
[9]
  TGI: 8.1 µM
[54]
  TGI: 20.9 µM
[10]
  TGI: 26.1 µM
[11]
  TGI: 26.5 µM
[12]
  TGI: 29.1 µM
[13]
  TGI: 21.5 µM
[14]
  TGI: 3.44 µM
[15]
  TGI: 19.2 µM
[16]
  TGI: 24.5 µM
[18]
  TGI: 11.6 µM
[20]
  TGI: 25.2 µM
[21]
  TGI: 12.3 µM
[23]
  TGI: 40.1 µM
[24]
  TGI: 26.2 µM
[26]
  TGI: 7.37 µM
[27]
  TGI: 27.8 µM
[28]
  TGI: 26.2 µM
[29]
  TGI: 26.7 µM
[30]
  TGI: 3.59 µM
[31]
  TGI: 3.83 µM
[32]
  TGI: 22.7 µM
[35]
  TGI: 8.52 µM
[36]
  TGI: 18.8 µM
[55]
  TGI: 3.79 µM
[37]
  TGI: 23.3 µM
[38]
  TGI: 4.91 µM
[39]
  TGI: 27.5 µM
[40]
  TGI: 25.8 µM
[41]
  TGI: 28.4 µM
[43]
  TGI: 29.4 µM
[44]
  TGI: 27.3 µM
[45]
  TGI: 26.3 µM
[46]
  TGI: 36.1 µM
[47]
  TGI: 25.6 µM
[48]
  TGI: 35.2 µM
[49]
  TGI: 15 µM
[58]
  TGI: 2.62 µM
